# Reference: patent US9126060B2, “Cosmetic use of geranylgeranyl-2-propanol” (SEDERMA, priority 2010, dated 2015)
# Assays:
# [1] = system: fibroblasts (FHN); experiment: Intracellular peroxide level (DCFH-DA probe) in fibroblasts after SIPS; assay type: cell-based, human; settings: 3 ppm
# Experimental: Principle: Fibroblasts at confluence contacted or not with the GGP for several days, are subjected to oxidative stress by hydrogen peroxide in the presence or absence of the GGP. This stress is intended to induce premature senescence in cells.
# After this initial stress, the cells were detached from the support and returned to culture at low density until confluence. They are then contacted or not with the compound of the invention for 24 hours. At this stage, each set of cultures (with or without the tested compounds) is divided into 2 lots. A first batch (not stressed) is evaluated directly for its concentration of intracellular peroxides (using the probe DCFH-DA). Simultaneously, the other batch (stressed) undergoes a second stress by hydrogen peroxide (weaker than the first) just before being evaluated in the same way regarding the concentration of intracellular peroxides.
# The amount of fluorescence measured with this probe is directly proportional to the amount of peroxides present in the cells.
# [2] = system: presenescent fibroblasts; experiment: Mitochondrial membrane potential of presenescent fibroblasts (dye ratio λ520/λ590); assay type: cell-based; settings: for Improvement of the respiration potential / Change with regard to non stressed young cells: with oxidative stress; for Change with regard to non stressed young cells: control −100%
# Text: It is possible to measure the membrane potential through a specific membrane dye. Depending on the level of the membrane potential, this dye is rather present as monomer (emission fluorescence at 520 nm) or rather in the multimetric form (fluorescence emission at 590 nm). High membrane potential promotes a multimetric form.
# The ratio λ520/λ590 varies inversely with the membrane potential. The lower the ratio is, the higher the membrane potential is. The increase in the ratio thus reflects a decrease in membrane potential. The ratio λ520/λ590 for young and proliferating cells is 2.97+/−0.17.
# […] After this period, the membrane potential of half of the cultures was measured.
# The other half of the cultures underwent an oxidative stress (hydrogen peroxide) before measuring their membrane potential.
# [3] = system: Normal human dermal fibroblasts; experiment: Mean telomere length of fibroblasts in natural senescence (real-time quantitative PCR); assay type: cell-based; settings: 1.65 ppm
# Text: The applicant has performed the average length measurement of the telomeres of a culture by a rapid method using PCR (Polymerase Chain Reaction) real-time quantitative.
# This method relies on the use of two oligonucleotide primers specific of the telomeric repeat sequence (TTAGGG) and thus capable of hybridizing themselves to each of the two complementary strands of telomeric DNA, and then able to be amplified during the PCR cycles proportionally to the average length of telomeres of the genomic DNA of a given culture. A fluorescent molecule, intercalated into DNA double strand, is used to quantify the phenomenon (hybridization+amplification) at the end of each cycle. The parameter for evaluating the significance of this phenomenon is the Ct, cycle number of hybridization amplification necessary to reach a given fluorescence threshold above background noise.
# Each Ct will be converted into an average length of telomeres, with a reference range obtained with successive dilutions from a standard solution of a synthetic oligonucleotide of 84 bases, consisting of 14 repeats of the TTAGGG sequence, each of these dilutions (or point range) being subjected to real-time quantitative PCR.
# To be accurate, the assessment must take into account the number of genomes present. The latter will be appreciated by a PCR conducted in parallel with a control gene, 36B4, encoding a ribosomal phosphoprotein with two primers (oligonucleotides) specific for this gene. The Ct obtained in this PCR will be converted into a number of genomes using a standard range made from an oligonucleotide of 75 bases, representing the amplicon obtained with primers specific to 36B4.
# Therefore is obtained for each total DNA extracts from a given culture, an average length of telomere per genome.
# Principle: Normal human dermal fibroblasts are grown on several cell passages, in contact or not with the GGP until a strong slowdown and little or not proliferative cells. At this stage, cultures are stopped, DNA extracted and the average telomere length measured for each culture.
# [4] = system: Keratinocytes; experiment: Keratinocyte culture survival and recovery after UVB stress (cell count); assay type: cell-based; settings: for Cell number, mean (n = 3): UVB 50 mJ/cm^2, six days later
# Experimental: Keratinocytes in monolayer, after an UVB radiation (12 to 240 mJ/cm^2), develop on their surface many burgeons, detach from the culture medium, undergo damages up to death. A cell count at various times after UVB radiation is used to evaluate the cell viability of the culture. This model is widely used in cosmetics to evaluate the protective effect of various compounds against the deleterious effects of UVB stress.
# Principle: Keratinocytes were cultured in 35 mm dish. Just at confluence, the cells are contacted or not with the GGP for 24 hours. UVB irradiation (50 mJ/cm^2) is performed the next day, and the cells are or not contacted with the GGP. Six days later, the cells are counted to determine the cell viability in culture.
# [5] = Lipidic peroxidation of liposomes by UVA (conjugated dienes at 233 nm); assay type: biochemical
# Text: Principle: Cell membranes are composed of oxidable phospholipids. Using a cell-free model (unsaturated phospholipids based liposomes) and a reproducible oxidative stress (UVA radiation), it is possible to follow spectrophotometrically (at 233 nm) the formation of early by-products of lipoperoxidation that are conjugated dienes. An anti-lipoperoxidant agent can reduce or even eliminate this phenomenon.
# [6] = system: stratum corneum; experiment: Ex vivo lipoperoxidation of stratum corneum extracts from volunteers (8-isoprostanes ELISA); assay type: in vivo, human; settings: cream containing 0.04% of GGP 2 times daily for 2 months on forearm; compared with placebo extracts; H2O2/FeCl2 stress; 13 volunteers
# Text: Lipids of the stratum corneum are the primary targets of free radical aggressions. Thus, it seemed interesting to test the antiradical capacity of the GGP in ex vivo condition on extracts of stratum corneum from volunteers who applied for 2 months, on one arm a placebo cream and on the other arm the GGP cream (Formulation 2/2 in the examples given above). These extracts are stressed to oxidize lipids. A lower oxidation in skin extracts which were in contact with the GGP is seeked.
# Principle: 13 volunteers have applied 2 times daily for 2 months in a randomized manner the cream containing 0.04% of GGP on one forearm. The placebo cream was applied controlateral. Each subject was therefore their own control. At T0 and T2, specimens of stratum corneum were taken on the 2 arms with 3 adhesive discs per aim, and for each disk 15 take off (saturation of the disk).
# The disks were stored at −20° C. until lipoperoxidation testing. After rapid thawing at room temperature, the 3 discs from the same arms were collected and sonicated in a suitable diluent, to take off and recover the maximum amount of stratum corneum samples. The resulting suspension was then stressed overnight at 45° C., using a H2O2/FeCl2 solution. The lipid peroxidation was assessed by measuring 8-isoprostanes (ELISA assay). The data were normalized using a protein assay.
compound,measurement,setting,value
"CC(C)=CCC/C(C)=C/CC/C(C)=C/CC/C(C)=C/CCC(C)O (stereo not drawn) [GGP, 6,10,14,18-tetramethylnonadeca-5,9,13,17-tetraen-2-ol]",Endogen peroxides,[1]; SIPS fibroblasts subjected to a second oxidant stress,161 +/− 14 UFA/million of cells
same,% Change/Control of endogen peroxides,"[1]; after SIPS, not stressed again",−40%; p < 0.01
same,Endogen peroxides,"[1]; after SIPS, not stressed again",61.2 +/− 2.6 UFA/million of cells
same,% of protection of the respiration potential,"[2]; 3 ppm, no stress",+22%; nsd
same,ΔΨ loss with regard to non stressed young cells,"[2]; 3 ppm, one week, no stress",1.11 +/− 0.33
same,Improvement of the respiration potential,[2]; 3 ppm,+35%; p < 0.05
same,ΔΨ loss with regard to non stressed young cells,"[2]; 3 ppm, with oxidative stress (hydrogen peroxide)",3.57 +/− 0.69
same,Change with regard to non stressed young cells,[2]; 3 ppm,−65%
same,% of protection of the respiration potential,"[2]; 5 ppm, no stress",+41%; p < 0.01
same,ΔΨ loss with regard to non stressed young cells,"[2]; 5 ppm, one week, no stress",0.84 +/− 0.08
same,Improvement of the respiration potential,[2]; 5 ppm,+63%; p < 0.01
same,ΔΨ loss with regard to non stressed young cells,"[2]; 5 ppm, with oxidative stress (hydrogen peroxide)",2.03 +/− 0.69
same,Change with regard to non stressed young cells,[2]; 5 ppm,−37%
same,Mean telomere length,"[3]; presenescent cells, n = 3",8.35 +/− 0.75 kb/genome
same,protection against natural telomere erosion (length vs control),[3]; vs presenescent control,+1.45 kb →
same,Telomere erosion due to aging,[3]; vs proliferative cells,−2.31 kb; nsd kb/genome
same,% change/control of cell number,[4]; 1 ppm,+31%
same,"Cell number, mean (n = 3)",[4]; 1 ppm,4.83 ×10^5/35 mm dish
same,% change/control of cell number,[4]; 1.65 ppm,+38%
same,"Cell number, mean (n = 3)",[4]; 1.65 ppm,5.08 ×10^5/35 mm dish
same,% of peroxidation inhibition,[5]; 8 ppm,14%
same,% of peroxidation inhibition,[5]; 26 ppm,24%
same,% of peroxidation inhibition,[5]; 80 ppm,75%
same,level of protection against oxidation,[6],+44%
